Test results taken from patent US20240024488A1, “COMPOUNDS AND USES THEREOF” (Foghorn Therapeutics Inc., priority 2020, published 2024).

What was measured:
[1] = molecular target: T1, HiBit-BRG1 fusion protein (Homo sapiens, UniProt P51532); assay: HiBiT-BRG1 cell-based degradation assay (Nano-Glo HiBiT Lytic Detection, 24 h); details: HeLa cell line expressing HiBit-BRG1 and LgBit; for Dmax: read-out: BRG1 HiBit Degradation Maximum (%); for DC50: read-out: BRMG1 HiBit Degradation IC50
T1 construct: expressed in transfected cells
T1 sequence (P51532 whole entry, the tested form may be a part): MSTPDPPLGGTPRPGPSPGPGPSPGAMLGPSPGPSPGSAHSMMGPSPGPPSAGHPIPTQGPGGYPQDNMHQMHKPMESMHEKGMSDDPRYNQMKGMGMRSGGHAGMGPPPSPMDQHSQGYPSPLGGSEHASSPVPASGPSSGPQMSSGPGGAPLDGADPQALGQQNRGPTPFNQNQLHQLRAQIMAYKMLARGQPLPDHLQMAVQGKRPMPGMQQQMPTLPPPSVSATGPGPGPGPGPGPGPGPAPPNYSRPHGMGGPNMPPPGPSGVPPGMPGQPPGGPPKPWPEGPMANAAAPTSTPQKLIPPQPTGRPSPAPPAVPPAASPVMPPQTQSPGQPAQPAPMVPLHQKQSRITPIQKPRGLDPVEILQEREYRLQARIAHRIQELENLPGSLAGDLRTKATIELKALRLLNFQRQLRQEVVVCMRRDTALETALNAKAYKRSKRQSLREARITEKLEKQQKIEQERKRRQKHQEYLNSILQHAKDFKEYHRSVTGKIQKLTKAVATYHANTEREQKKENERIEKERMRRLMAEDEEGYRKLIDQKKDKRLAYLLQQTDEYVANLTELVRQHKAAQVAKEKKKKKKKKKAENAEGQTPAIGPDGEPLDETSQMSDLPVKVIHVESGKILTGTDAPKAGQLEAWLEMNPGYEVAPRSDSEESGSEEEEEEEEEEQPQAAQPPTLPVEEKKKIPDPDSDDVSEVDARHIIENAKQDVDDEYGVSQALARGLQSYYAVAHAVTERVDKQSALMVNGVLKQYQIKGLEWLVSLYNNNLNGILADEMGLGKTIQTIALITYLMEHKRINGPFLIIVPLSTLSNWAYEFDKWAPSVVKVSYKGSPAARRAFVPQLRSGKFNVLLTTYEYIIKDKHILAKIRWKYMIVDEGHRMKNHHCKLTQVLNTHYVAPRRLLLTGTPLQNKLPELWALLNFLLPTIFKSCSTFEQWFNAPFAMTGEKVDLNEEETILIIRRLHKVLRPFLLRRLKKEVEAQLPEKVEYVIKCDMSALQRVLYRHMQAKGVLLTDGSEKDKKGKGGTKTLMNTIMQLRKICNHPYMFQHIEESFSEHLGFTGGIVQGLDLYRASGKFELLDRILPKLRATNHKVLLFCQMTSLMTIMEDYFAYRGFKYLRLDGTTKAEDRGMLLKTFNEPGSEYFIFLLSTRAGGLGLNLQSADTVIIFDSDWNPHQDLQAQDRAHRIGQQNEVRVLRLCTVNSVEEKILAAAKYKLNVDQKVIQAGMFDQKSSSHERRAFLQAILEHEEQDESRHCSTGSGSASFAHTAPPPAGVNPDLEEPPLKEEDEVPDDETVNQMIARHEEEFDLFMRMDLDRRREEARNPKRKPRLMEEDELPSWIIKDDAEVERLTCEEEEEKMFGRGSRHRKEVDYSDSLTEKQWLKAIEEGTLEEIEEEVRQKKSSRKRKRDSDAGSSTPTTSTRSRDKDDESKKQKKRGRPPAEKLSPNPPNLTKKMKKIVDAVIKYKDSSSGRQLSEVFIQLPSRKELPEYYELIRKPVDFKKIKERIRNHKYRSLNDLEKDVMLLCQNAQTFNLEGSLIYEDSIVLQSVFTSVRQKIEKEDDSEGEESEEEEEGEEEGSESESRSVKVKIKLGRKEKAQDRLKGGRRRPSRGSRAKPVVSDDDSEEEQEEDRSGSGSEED
Experimental: Procedure: A stable HeLa cell line expressing HiBiT-BRM was generated. On day 0, 5000 cells were seeded in 40 μL of media into each well of 384-well cell culture plates. […] Subsequently plates were incubated for 24 h in a standard tissue culture incubator and equilibrated at room temperature for 15 minutes. Nano-Glo HiBiT Lytic Detection System (Promega N3050) reagent was freshly prepared and 20 ul was added to each well. Upon addition of this LgBit-containing reagent, the HiBiT and LgBiT proteins associate to form the luminescent NanoBiT luciferase. The plates were shaken for 10 minutes at room temperature and the bioluminescence read using an EnVision plate reader (PerkinElmer).
For measurement of BRG1 degradation, a stable HeLa cell line expressing HiBit-BRG1 and LgBit was generated. The same protocol as above was then followed.
(§1) The degradation % was calculated using the following formula: % degradation=100%−100%×(LumSample−LumLC)/(LumHC−LumLC). DMSO treated cells are employed as High Control (HC) and 2 μM of a known BRM/BRG1 degrader standard treated cells are employed as Low Control (LC).

HiBit-BRM fusion protein = molecular target: T2, HiBit-BRM fusion protein (Homo sapiens, UniProt P51531); assay: HiBiT-BRM cell-based degradation assay (Nano-Glo HiBiT Lytic Detection, 24 h); details: HeLa cell line expressing HiBiT-BRM; for DC50: read-out: BRM HiBit Degradation IC50
T2 construct: expressed in transfected cells
T2 sequence (P51531 whole entry, the tested form may be a part): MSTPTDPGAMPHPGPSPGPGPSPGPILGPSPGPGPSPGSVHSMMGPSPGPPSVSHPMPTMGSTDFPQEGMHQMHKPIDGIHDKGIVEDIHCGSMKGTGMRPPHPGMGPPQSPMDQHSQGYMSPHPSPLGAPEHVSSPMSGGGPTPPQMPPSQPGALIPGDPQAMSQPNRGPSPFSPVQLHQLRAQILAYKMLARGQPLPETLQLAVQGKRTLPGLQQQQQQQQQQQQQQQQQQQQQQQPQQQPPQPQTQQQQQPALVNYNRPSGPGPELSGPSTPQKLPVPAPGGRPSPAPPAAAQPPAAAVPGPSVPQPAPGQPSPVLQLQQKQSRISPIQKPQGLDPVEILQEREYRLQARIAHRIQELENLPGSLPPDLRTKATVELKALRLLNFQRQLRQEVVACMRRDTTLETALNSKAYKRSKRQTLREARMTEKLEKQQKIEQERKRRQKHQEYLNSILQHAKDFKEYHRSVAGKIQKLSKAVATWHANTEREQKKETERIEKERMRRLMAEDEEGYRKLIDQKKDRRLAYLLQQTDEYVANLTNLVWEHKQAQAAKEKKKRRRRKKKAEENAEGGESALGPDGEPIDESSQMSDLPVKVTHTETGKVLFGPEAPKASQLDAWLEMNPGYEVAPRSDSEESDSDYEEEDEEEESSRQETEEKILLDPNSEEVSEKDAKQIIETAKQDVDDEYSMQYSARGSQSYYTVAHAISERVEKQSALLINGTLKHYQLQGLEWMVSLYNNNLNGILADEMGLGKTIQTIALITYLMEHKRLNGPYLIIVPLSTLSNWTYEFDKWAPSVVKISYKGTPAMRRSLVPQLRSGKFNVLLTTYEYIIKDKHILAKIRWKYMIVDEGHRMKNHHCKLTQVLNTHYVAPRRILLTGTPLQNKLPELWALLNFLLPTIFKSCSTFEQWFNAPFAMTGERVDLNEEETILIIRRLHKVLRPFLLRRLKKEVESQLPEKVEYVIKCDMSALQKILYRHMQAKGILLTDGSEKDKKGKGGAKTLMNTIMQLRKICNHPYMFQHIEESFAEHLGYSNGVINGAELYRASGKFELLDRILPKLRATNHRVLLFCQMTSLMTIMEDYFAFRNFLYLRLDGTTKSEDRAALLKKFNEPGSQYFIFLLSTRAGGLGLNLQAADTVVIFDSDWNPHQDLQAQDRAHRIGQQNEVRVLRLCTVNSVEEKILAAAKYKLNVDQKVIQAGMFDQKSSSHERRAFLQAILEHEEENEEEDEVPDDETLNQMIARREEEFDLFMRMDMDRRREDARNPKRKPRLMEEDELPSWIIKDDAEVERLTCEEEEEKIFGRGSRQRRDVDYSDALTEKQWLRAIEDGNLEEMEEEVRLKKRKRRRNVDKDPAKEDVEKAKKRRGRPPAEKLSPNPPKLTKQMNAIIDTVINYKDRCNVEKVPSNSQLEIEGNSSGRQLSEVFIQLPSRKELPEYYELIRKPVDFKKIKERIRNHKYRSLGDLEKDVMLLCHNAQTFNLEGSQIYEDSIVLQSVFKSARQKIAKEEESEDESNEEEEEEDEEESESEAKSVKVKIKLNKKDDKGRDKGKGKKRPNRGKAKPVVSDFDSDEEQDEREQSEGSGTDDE
Experimental: Procedure: A stable HeLa cell line expressing HiBiT-BRM was generated. On day 0, 5000 cells were seeded in 40 μL of media into each well of 384-well cell culture plates. On day 1, cells were treated with 120 nL DMSO or 120 nL of 3-fold serially DMSO-diluted compounds (10 points in duplicate with 30 μM as final top dose). Subsequently plates were incubated for 24 h in a standard tissue culture incubator and equilibrated at room temperature for 15 minutes. Nano-Glo HiBiT Lytic Detection System (Promega N3050) reagent was freshly prepared and 20 ul was added to each well. Upon addition of this LgBit-containing reagent, the HiBiT and LgBiT proteins associate to form the luminescent NanoBiT luciferase. The plates were shaken for 10 minutes at room temperature and the bioluminescence read using an EnVision plate reader (PerkinElmer).
as §1

Row | Dmax [1] [%] | DC50 (HiBit-BRM fusion protein) [nM] | DC50 [1] [nM] | Compound | BRM HiBit Degradation Maximum (%) (HiBit-BRM fusion protein)
1 | < 50 | – | – | Cc1ncsc1-c1ccc(CNC(=O)[C@@H]2C[C@@H](O)CN2C(=O)[C@@H](NC(=O)CCCCCNCCC(=O)N2CC(c3cc4cc(-c5ccccc5O)nnc4[nH]3)C2)C(C)(C)C)cc1 (racemic) [Compound 55, (2S,4R)-4-hydroxy-1-((S)-2-(6-((3-(3-(3-(2-hydroxyphenyl)-7H-pyrrolo[2,3-c]pyridazin-6-yl)azetidin-1-yl)-3-oxopropyl)amino)hexanamido)-3,3-dimethylbutanoyl)-N-(4-(4-methylthiazol-5-yl)benzyl)pyrrolidine-2-carboxamide] | C (“C” indicates maximum degradation < 50%)
2 | < 50 | > 1000 | – | Cc1ncsc1-c1ccc(CNC(=O)[C@@H]2C[C@@H](O)CN2C(=O)[C@@H](NC(=O)CCCCCCCNCCC(=O)N2CC(c3c[nH]c4nnc(-c5ccccc5O)cc34)C2)C(C)(C)C)cc1 (racemic) [Compound 56, (2S,4R)-4-hydroxy-1-((S)-2-(8-((3-(3-(3-(2-hydroxyphenyl)-7H-pyrrolo[2,3-c]pyridazin-5-yl)azetidin-1-yl)-3-oxopropyl)amino)octanamido)-3,3-dimethylbutanoyl)-N-(4-(4-methylthiazol-5-yl)benzyl)pyrrolidine-2-carboxamide] | B (“B” indicates maximum degradation ≥ 50%)
3 | < 50 | – | – | Cc1ncsc1-c1ccc(CNC(=O)[C@@H]2C[C@@H](O)CN2C(=O)[C@@H](NC(=O)CCCCCNCCC(=O)N2CC(c3c[nH]c4nnc(-c5ccccc5O)cc34)C2)C(C)(C)C)cc1 (racemic) [Compound 57, (2S,4R)-4-hydroxy-1-((S)-2-(6-((3-(3-(3-(2-hydroxyphenyl)-7H-pyrrolo[2,3-c]pyridazin-5-yl)azetidin-1-yl)-3-oxopropyl)amino)hexanamido)-3,3-dimethylbutanoyl)-N-(4-(4-methylthiazol-5-yl)benzyl)pyrrolidine-2-carboxamide] | C (“C” indicates maximum degradation < 50%)
4 | > 75 | > 100 | > 100 | Cc1ncsc1-c1ccc([C@H](C)NC(=O)[C@@H]2C[C@@H](O)CN2C(=O)[C@@H](c2cc(OCCN3CCN(CCN4CC(c5cc6cc(-c7ccccc7O)nnc6[nH]5)C4)CC3)no2)C(C)C)cc1 (racemic) [Compound 58, (2S,4R)-4-hydroxy-1-((R)-2-(3-(2-(4-(2-(3-(3-(2-hydroxyphenyl)-7H-pyrrolo[2,3-c]pyridazin-6-yl)azetidin-1-yl)ethyl)piperazin-1-yl)ethoxy)isoxazol-5-yl)-3-methylbutanoyl)-N-((S)-1-(4-(4-methylthiazol-5-yl)phenyl)ethyl)pyrrolidine-2-carboxamide] | A (“A” indicates maximum degradation ≥ 75%)
5 | < 50 | > 100 | – | Cc1ncsc1-c1ccc([C@H](C)NC(=O)[C@@H]2C[C@@H](O)CN2C(=O)[C@@H](c2cc(OCCN(C)CCN3CC(c4cc5cc(-c6ccccc6O)nnc5[nH]4)C3)no2)C(C)C)cc1 (racemic) [Compound 59, (2S,4R)-4-hydroxy-1-((R)-2-(3-(2-((2-(3-(3-(2-hydroxyphenyl)-7H-pyrrolo[2,3-c]pyridazin-6-yl)azetidin-1-yl)ethyl)(methyl)amino)ethoxy)isoxazol-5-yl)-3-methylbutanoyl)-N-((S)-1-(4-(4-methylthiazol-5-yl)phenyl)ethyl)pyrrolidine-2-carboxamide] | B (“B” indicates maximum degradation ≥ 50%)
6 | < 50 | – | – | Cc1ncsc1-c1ccc(CNC(=O)[C@@H]2C[C@@H](O)CN2C(=O)[C@@H](NC(=O)CCCN2CC(c3cc4cc(-c5ccccc5O)nnc4[nH]3)C2)C(C)(C)C)cc1 (racemic) [Compound 60, (2S,4R)-4-hydroxy-1-((S)-2-(4-(3-(3-(2-hydroxyphenyl)-7H-pyrrolo[2,3-c]pyridazin-6-yl)azetidin-1-yl)butanamido)-3,3-dimethylbutanoyl)-N-(4-(4-methylthiazol-5-yl)benzyl)pyrrolidine-2-carboxamide] | C (“C” indicates maximum degradation < 50%)
7 | > 75 | > 1000 | > 1000 | Cc1ncsc1-c1ccc(CNC(=O)[C@@H]2C[C@@H](O)CN2C(=O)[C@@H](NC(=O)CN2CC(c3cc4cc(-c5ccccc5O)nnc4[nH]3)C2)C(C)(C)C)cc1 (racemic) [Compound 61, (2S,4R)-4-hydroxy-1-((S)-2-(2-(3-(3-(2-hydroxyphenyl)-7H-pyrrolo[2,3-c]pyridazin-6-yl)azetidin-1-yl)acetamido)-3,3-dimethylbutanoyl)-N-(4-(4-methylthiazol-5-yl)benzyl)pyrrolidine-2-carboxamide] | A (“A” indicates maximum degradation ≥ 75%)
8 | < 50 | – | – | Cc1ncsc1-c1ccc(CNC(=O)[C@@H]2C[C@@H](O)CN2C(=O)[C@@H](NC(=O)C2(F)CC2)C(C)(C)C)c(OCCN2CC(c3cc4cc(-c5ccccc5O)nnc4[nH]3)C2)c1 (racemic) [Compound 63, (2S,4R)-1-((S)-2-(1-fluorocyclopropane-1-carboxamido)-3,3-dimethylbutanoyl)-4-hydroxy-N-(2-(2-(3-(3-(2-hydroxyphenyl)-7H-pyrrolo[2,3-c]pyridazin-6-yl)azetidin-1-yl)ethoxy)-4-(4-methylthiazol-5-yl)benzyl)pyrrolidine-2-carboxamide] | C (“C” indicates maximum degradation < 50%)
9 | < 50 | > 100 | – | Cc1ncsc1-c1ccc([C@H](C)NC(=O)[C@@H]2C[C@@H](O)CN2C(=O)[C@@H](c2cc(OCCN(C)CCC(=O)N3CC(c4cc5cc(-c6ccccc6O)nnc5[nH]4)C3)no2)C(C)C)cc1 (racemic) [Compound 64, (2S,4R)-4-hydroxy-1-((R)-2-(3-(2-((3-(3-(3-(2-hydroxyphenyl)-7H-pyrrolo[2,3-c]pyridazin-6-yl)azetidin-1-yl)-3-oxopropyl)(methyl)amino)ethoxy)isoxazol-5-yl)-3-methylbutanoyl)-N-((S)-1-(4-(4-methylthiazol-5-yl)phenyl)ethyl)pyrrolidine-2-carboxamide] | B (“B” indicates maximum degradation ≥ 50%)
10 | < 50 | > 1000 | – | Cc1ncsc1-c1ccc([C@H](C)NC(=O)[C@@H]2C[C@@H](O)CN2C(=O)[C@@H](c2cc(OCCNCCC(=O)N3CC(c4cc5cc(-c6ccccc6O)nnc5[nH]4)C3)no2)C(C)C)cc1 (racemic) [Compound 65, (2S,4R)-4-hydroxy-1-((R)-2-(3-(2-((3-(3-(3-(2-hydroxyphenyl)-7H-pyrrolo[2,3-c]pyridazin-6-yl)azetidin-1-yl)-3-oxopropyl)amino)ethoxy)isoxazol-5-yl)-3-methylbutanoyl)-N-((S)-1-(4-(4-methylthiazol-5-yl)phenyl)ethyl)pyrrolidine-2-carboxamide] | B (“B” indicates maximum degradation ≥ 50%)
11 | < 50 | – | – | Cc1ncsc1-c1ccc(CNC(=O)[C@@H]2C[C@@H](O)CN2C(=O)[C@@H](NC(=O)CCCCCCCNCCC(=O)N2CC(c3cc4cc(-c5ccccc5O)nnc4[nH]3)C2)C(C)(C)C)cc1 (racemic) [Compound 66, (2S,4R)-4-hydroxy-1-((S)-2-(8-((3-(3-(3-(2-hydroxyphenyl)-7H-pyrrolo[2,3-c]pyridazin-6-yl)azetidin-1-yl)-3-oxopropyl)amino)octanamido)-3,3-dimethylbutanoyl)-N-(4-(4-methylthiazol-5-yl)benzyl)pyrrolidine-2-carboxamide] | C (“C” indicates maximum degradation < 50%)
12 | > 75 | < 10 | > 10 | Cc1ncsc1-c1ccc([C@H](C)NC(=O)[C@@H]2C[C@@H](O)CN2C(=O)[C@@H](c2cc([C@H]3CC[C@H](c4cnc(N5CCC(c6c[nH]c7nnc(-c8ccccc8O)cc67)CC5)nc4)CC3)no2)C(C)C)cc1 (racemic) [Compound 67, (2S,4R)-4-hydroxy-N-[(1S)-1-[4-(4-methyl-1,3-thiazol-5-yl)phenyl]ethyl]-1-[(2R)-3-methyl-2-{3-[(1r,4r)-4-(2-{4-[3-(2-hydroxyphenyl)-7H-pyrrolo[2,3-c]pyridazin-5-yl]piperidin-1-yl}pyrimidin-5-yl)cyclohexyl]-1,2-oxazol-5-yl}butanoyl]pyrrolidine-2-carboxamide] | A (“A” indicates maximum degradation ≥ 75%)
